Biological target: Jurkat cells expressing CXCR4 (Homo sapiens (Human), UniProt P61073)
Experiment: Chemokine (CXCL12-AF647) binding inhibition assay
Conditions: CXCL12-AF647 25 ng/mL, read-out: IC50 CXCL-12 binding Jurkat
Procedure, shortened: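 Cells in HBSS, 20 mM HEPES, 0.2% BSA, pH 7.4, preincubated 15 min at room temperature with compound, then 25 ng/mL CXCL12-AF647 for 30 min. After washing and paraformaldehyde fixation, bound ligand read by flow cytometry; percent inhibition calculated from MFI relative to unlabeled and ligand-only controls.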

Sequence of Jurkat cells expressing CXCR4 (P61073 whole entry): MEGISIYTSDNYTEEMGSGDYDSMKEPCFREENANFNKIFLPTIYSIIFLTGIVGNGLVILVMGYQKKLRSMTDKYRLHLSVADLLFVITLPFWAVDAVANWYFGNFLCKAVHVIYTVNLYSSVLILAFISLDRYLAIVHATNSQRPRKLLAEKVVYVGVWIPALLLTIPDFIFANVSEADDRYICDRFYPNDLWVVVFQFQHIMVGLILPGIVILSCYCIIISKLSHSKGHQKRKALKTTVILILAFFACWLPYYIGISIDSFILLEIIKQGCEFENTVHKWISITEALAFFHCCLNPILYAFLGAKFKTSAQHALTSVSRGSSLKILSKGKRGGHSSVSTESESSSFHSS

| SMILES | IC50 [nM] |
| --- | --- |
| Cc1cccnc1[C@@H]1CCC[C@H](c2cn3c(N4C5CCC4CN(C)C5)cccc3n2)N1 [Compound I-186] | 0.01 to 100 |
| Clc1cccnc1[C@@H]1CCC[C@H](c2cn3c(N4CCNC5(CC5)C4)cccc3n2)N1 [Compound I-166] | 100 to 1000 |
| Cc1cccnc1[C@@H]1CCC[C@H](c2nc3c(N)ccc(N4CCN(C)CC4)n3c2Cl)N1C [Compound I-164] | 0.01 to 100 |
| CN1CCN(c2cccc3nc([C@H]4CCC[C@@H](c5ncccc5Cl)N4)c(Cl)n23)CC1 [Compound I-147] | 0.01 to 100 |
| Cc1cccnc1[C@@H]1CC(=O)C[C@H](c2cn3c(N4CCN(C)CC4)cccc3n2)N1C [Compound I-3] | 0.01 to 100 |
| COc1cccnc1[C@@H]1CCC[C@H](c2nc3cccc(N4CCN(C)CC4)n3c2Cl)N1 [Compound I-173] | 100 to 1000 |
| CCN1[C@@H](c2cn3c(N4CCN(C(C)C)CC4)cccc3n2)CCC[C@H]1c1ncccc1C [Compound I-37] | 0.01 to 100 |
| CN1CCN(c2cccc3nc([C@H]4CCC[C@@H](c5ncccc5Cl)N4)cn23)CC12CC2 [Compound I-160] | 100 to 1000 |
| COc1cccnc1[C@@H]1CCC[C@H](c2cn3c(N4CCN(C)CC4)cccc3n2)N1 [Compound I-191] | 0.01 to 100 |
| Cc1cccnc1[C@@H]1CCC[C@H](c2nc3cccc(N4CCN5CCCC5C4)n3c2Cl)N1C (stereo partly shown) [Compound I-113] | 0.01 to 100 |
| CC(C)c1cccnc1[C@@H]1CCC[C@H](c2nc3cccc(N4CCN(C)CC4)n3c2Cl)N1C [Compound I-91] | 100 to 1000 |
| CN1CCN(c2cccc3nc([C@H]4CCC[C@@H](c5ncccc5C5CC5)N4C)cn23)CC1 [Compound I-79] | 0.01 to 100 |
| Cc1cccnc1[C@@H]1CCC[C@H](c2cn3c(N4CCN(CC(F)(F)F)CC4)cccc3n2)N1C [Compound I-14] | 100 to 1000 |
| Cc1cccnc1[C@@H]1CCC[C@H](c2cn3c(N4C5CCC4CN(C)C5)cccc3n2)N1C [Compound I-69] | 0.01 to 100 |
| Cc1cccnc1[C@@H]1CCC[C@H](c2cn3c(N4CCNC5(CC5)C4)cccc3n2)N1C [Compound I-156] | 0.01 to 100 |
| Cc1cccnc1[C@@H]1CCC[C@H](c2nc3cccc(N4CCN(C)CC4)n3c2CO)N1C [Compound I-11] | 0.01 to 100 |
| Cc1cccnc1[C@@H]1CCC[C@H](c2nc3ccccn3c2CN2CCN(C(C)C)CC2)N1C [Compound I-39] | 0.01 to 100 |

Tested on: not listed separately
Experiment: in vitro
Conditions: human, Caco-2, pH 7.4
Procedure, shortened: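 Compounds at 10 μM in HBSS pH 7.4 (0.1–0.3% DMSO) were dosed on Caco-2 monolayers, apical-to-basolateral and basolateral-to-apical, for 90 min at 37 °C, in duplicate. Monolayer integrity was checked by TEER and lucifer yellow flux, read by fluorescence at 485/535 nm. Compound was quantified by LC-MS/MS and Papp calculated.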

| SMILES | Papp A→B at 90 min, 10 μM [×10⁻⁶ cm/s] | Papp B→A at 90 min, 10 μM [×10⁻⁶ cm/s] | efflux ratio at 90 min, 10 μM |
| --- | --- | --- | --- |
| Cc1cccnc1[C@@H]1CCC[C@H](c2cn3c(N4C5CCC4CN(C)C5)cccc3n2)N1 [Compound I-186] | 0.1 to 10 | 10 to 30 | 0.1 to 10 |
| Clc1cccnc1[C@@H]1CCC[C@H](c2cn3c(N4CCNC5(CC5)C4)cccc3n2)N1 [Compound I-166] | 10 to 30 | 10 to 30 | 0.1 to 10 |
| Cc1cccnc1[C@@H]1CCC[C@H](c2nc3c(N)ccc(N4CCN(C)CC4)n3c2Cl)N1C [Compound I-164] | 10 to 30 | 10 to 30 | 0.1 to 10 |
| CN1CCN(c2cccc3nc([C@H]4CCC[C@@H](c5ncccc5Cl)N4)c(Cl)n23)CC1 [Compound I-147] | 10 to 30 | 10 to 30 | 0.1 to 10 |
| Cc1cccnc1[C@@H]1CC(=O)C[C@H](c2cn3c(N4CCN(C)CC4)cccc3n2)N1C [Compound I-3] | 0.1 to 10 | 0.1 to 10 | 0.1 to 10 |
| COc1cccnc1[C@@H]1CCC[C@H](c2nc3cccc(N4CCN(C)CC4)n3c2Cl)N1 [Compound I-173] | 0.1 to 10 | 10 to 30 | 0.1 to 10 |
| CCN1[C@@H](c2cn3c(N4CCN(C(C)C)CC4)cccc3n2)CCC[C@H]1c1ncccc1C [Compound I-37] | 0.1 to 10 | 10 to 30 | 0.1 to 10 |
| CN1CCN(c2cccc3nc([C@H]4CCC[C@@H](c5ncccc5Cl)N4)cn23)CC12CC2 [Compound I-160] | 10 to 30 | 10 to 30 | 0.1 to 10 |
| COc1cccnc1[C@@H]1CCC[C@H](c2cn3c(N4CCN(C)CC4)cccc3n2)N1 [Compound I-191] | 0.1 to 10 | > 30 | 10 to 30 |
| Cc1cccnc1[C@@H]1CCC[C@H](c2nc3cccc(N4CCN5CCCC5C4)n3c2Cl)N1C (stereo partly shown) [Compound I-113] | 0.1 to 10 | 0.1 to 10 | 0.1 to 10 |
| CC(C)c1cccnc1[C@@H]1CCC[C@H](c2nc3cccc(N4CCN(C)CC4)n3c2Cl)N1C [Compound I-91] | 0.1 to 10 | 0.1 to 10 | 0.1 to 10 |
| CN1CCN(c2cccc3nc([C@H]4CCC[C@@H](c5ncccc5C5CC5)N4C)cn23)CC1 [Compound I-79] | 0.1 to 10 | 10 to 30 | 0.1 to 10 |
| Cc1cccnc1[C@@H]1CCC[C@H](c2cn3c(N4CCN(CC(F)(F)F)CC4)cccc3n2)N1C [Compound I-14] | 10 to 30 | 10 to 30 | 0.1 to 10 |
| Cc1cccnc1[C@@H]1CCC[C@H](c2cn3c(N4C5CCC4CN(C)C5)cccc3n2)N1C [Compound I-69] | 0.1 to 10 | 10 to 30 | 0.1 to 10 |
| Cc1cccnc1[C@@H]1CCC[C@H](c2cn3c(N4CCNC5(CC5)C4)cccc3n2)N1C [Compound I-156] | 0.1 to 10 | 10 to 30 | 0.1 to 10 |
| Cc1cccnc1[C@@H]1CCC[C@H](c2nc3cccc(N4CCN(C)CC4)n3c2CO)N1C [Compound I-11] | 0.1 to 10 | 10 to 30 | 0.1 to 10 |
| Cc1cccnc1[C@@H]1CCC[C@H](c2nc3ccccn3c2CN2CCN(C(C)C)CC2)N1C [Compound I-39] | 0.1 to 10 | > 30 | 10 to 30 |

Biological target: CXCR-4 transfected U87 cell line (U87.CXCR4) (Homo sapiens (Human), UniProt P61073)
Experiment: Intracellular CXCL-12-induced calcium mobilization assay (FLIPR)
Assay type: cell-based
Conditions: U87.CXCR4 cells, CXCL-12 25-50 ng/mL; read-out: IC50 CXCL-12 Ca2+ flux U87.CXCR4+
Procedure, shortened: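 U87.CXCR4 cells were seeded at 20,000 per well, cultured 12 hours, then loaded with 4 μM Fluo-2 AM for 45 min at 37° C. in HBSS with 20 mM HEPES and 0.2% BSA, pH 7.4. Calcium flux triggered by CXCL-12 (25-50 ng/mL) was tracked over time by FLIPR fluorescence at 37° C.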

Sequence of CXCR-4 transfected U87 cell line (U87.CXCR4) (P61073 whole entry): as above

| SMILES | IC50 [nM] |
| --- | --- |
| Cc1cccnc1[C@@H]1CCC[C@H](c2cn3c(N4C5CCC4CN(C)C5)cccc3n2)N1 [Compound I-186] | 0.01 to 100 |
| Clc1cccnc1[C@@H]1CCC[C@H](c2cn3c(N4CCNC5(CC5)C4)cccc3n2)N1 [Compound I-166] | ≥ 1000 |
| Cc1cccnc1[C@@H]1CCC[C@H](c2nc3c(N)ccc(N4CCN(C)CC4)n3c2Cl)N1C [Compound I-164] | 0.01 to 100 |
| CN1CCN(c2cccc3nc([C@H]4CCC[C@@H](c5ncccc5Cl)N4)c(Cl)n23)CC1 [Compound I-147] | 100 to 1000 |
| Cc1cccnc1[C@@H]1CC(=O)C[C@H](c2cn3c(N4CCN(C)CC4)cccc3n2)N1C [Compound I-3] | 0.01 to 100 |
| COc1cccnc1[C@@H]1CCC[C@H](c2nc3cccc(N4CCN(C)CC4)n3c2Cl)N1 [Compound I-173] | ≥ 1000 |
| CCN1[C@@H](c2cn3c(N4CCN(C(C)C)CC4)cccc3n2)CCC[C@H]1c1ncccc1C [Compound I-37] | 0.01 to 100 |
| CN1CCN(c2cccc3nc([C@H]4CCC[C@@H](c5ncccc5Cl)N4)cn23)CC12CC2 [Compound I-160] | ≥ 1000 |
| COc1cccnc1[C@@H]1CCC[C@H](c2cn3c(N4CCN(C)CC4)cccc3n2)N1 [Compound I-191] | 100 to 1000 |
| Cc1cccnc1[C@@H]1CCC[C@H](c2nc3cccc(N4CCN5CCCC5C4)n3c2Cl)N1C (stereo partly shown) [Compound I-113] | 0.01 to 100 |
| CC(C)c1cccnc1[C@@H]1CCC[C@H](c2nc3cccc(N4CCN(C)CC4)n3c2Cl)N1C [Compound I-91] | ≥ 1000 |
| CN1CCN(c2cccc3nc([C@H]4CCC[C@@H](c5ncccc5C5CC5)N4C)cn23)CC1 [Compound I-79] | 0.01 to 100 |
| Cc1cccnc1[C@@H]1CCC[C@H](c2cn3c(N4CCN(CC(F)(F)F)CC4)cccc3n2)N1C [Compound I-14] | 100 to 1000 |
| Cc1cccnc1[C@@H]1CCC[C@H](c2cn3c(N4C5CCC4CN(C)C5)cccc3n2)N1C [Compound I-69] | 0.01 to 100 |
| Cc1cccnc1[C@@H]1CCC[C@H](c2cn3c(N4CCNC5(CC5)C4)cccc3n2)N1C [Compound I-156] | 0.01 to 100 |
| Cc1cccnc1[C@@H]1CCC[C@H](c2nc3cccc(N4CCN(C)CC4)n3c2CO)N1C [Compound I-11] | 0.01 to 100 |
| Cc1cccnc1[C@@H]1CCC[C@H](c2nc3ccccn3c2CN2CCN(C(C)C)CC2)N1C [Compound I-39] | 100 to 1000 |

Reference: US10759796B2, “CXCR4 inhibitors and uses thereof” (X4 Pharmaceuticals, Inc., priority 2016, dated 2020)
